The record followed here is patent publication US20090022806A1, “Nanoparticle and polymer formulations for thyroid hormone analogs, antagonists and formulations and uses thereof” (priority 2006, published 2009).

“And” between values parts separate entries of the source, which are not always exact repeats. Equal values may be shown once.

Test [1] concerns citrated human whole blood. The test is described as follows: Thromboelastography (TEG) clot dynamics. Conditions: 25 ng TF + 2.25 mM Ca^+2 or 10 mM Ca^+2; n = 4. How it is done:
Thromboelastography (TEG) has been used in various hospital settings since its development by Hartert in 1948. The principle of TEG is based on the measurement of the physical viscoelastic characteristics of blood clot. Clot formation was monitored at 37° C. in an oscillating plastic cylindrical cuvette (“cup”) and a coaxially suspended stationary piston (“pin”) with a 1 mm clearance between the surfaces, using a computerized Thrombelastograph (TEG Model 3000, Haemoscope, Skokie, Ill.). The cup oscillates in either direction every 4.5 seconds, with a 1 second mid-cycle stationary period; resulting in a frequency of 0.1 Hz and a maximal shear rate of 0.1 per second. The pin is suspended by a torsion wire that acts as a torque transducer. […] The torque experienced by the pin (relative to the cup's oscillation) is plotted as a function of time (FIG. 58).
TEG assesses coagulation by measuring various parameters such as the time latency for the initial initiation of the clot (R), the time to initiation of a fixed clot firmness (k) of about 20 mm amplitude, the kinetic of clot development as measured by the angle (α), and the maximum amplitude of the clot (MA). The parameter A measures the width of the tracing at any point of the MA. Amplitude A in mm is a function of clot strength or elasticity. The amplitude on the TEG tracing is a measure of the rigidity of the clot; the peak strength or the shear elastic modulus attained by the clot, G, is a function of clot rigidity and can be calculated from the maximal amplitude (MA) of the TEG tracing.
The following parameters were measured from the TEG tracing: • R, the reaction time (gelation time) represents the latent period before the establishment of a 3-dimensional fibrin gel network (with measurable rigidity of about 2 mm amplitude). • Maximum Amplitude (MA, in mm), is the peak rigidity manifested by the clot. • Shear elastic modulus or clot strength (G, dynes/cm^2) is defined by:
Blood was drawn from consenting volunteers under a protocol approved by the Human Investigations Committee of William Beaumont Hospital. Using the two syringe method, samples were drawn through a 21 gauge butterfly needle and the initial 3 ml blood was discarded.

In test [2] the test system is chick chorioallantoic membrane (CAM). The test is described as follows: Chick chorioallantoic membrane (CAM) assay of angiogenesis. Particulars: for effect on angiogenesis produced by T4: PTU applied to filter disks (1 mmol/L). Format: in vivo. As to the method:
Chorioallantoic membrane (CAM) Model of Angiogenesis: In vivo Neovascularization was examined by methods described previously. 9-12 Ten-day-old chick embryos were purchased from SPAFAS (Preston, Conn.) and incubated at 37° C. with 55% relative humidity. A hypodermic needle was used to make a small hole in the shell concealing the air sac, and a second hole was made on the broad side of the egg, directly over an avascular portion of the embryonic membrane that was identified by candling. A false air sac was created beneath the second hole by the application of negative pressure at the first hole, causing the CAM to separate from the shell. A window approximately 1.0 cm 2 was cut in the shell over the dropped CAM with a small-crafts grinding wheel (Dremel, division of Emerson Electric Co.), allowing direct access to the underlying CAM. FGF2 (1 μg/mL) was used as a standard proangiogenic agent to induce new blood vessel branches on the CAM of 10-day-old embryos. Sterile disks of No. 1 filter paper (Whatman International) were pretreated with 3 mg/mL cortisone acetate and 1 mmol/L PTU and air dried under sterile conditions. Thyroid hormone, hormone analogues, FGF2 or control solvents, and inhibitors were then applied to the disks and the disks allowed to dry. The disks were then suspended in PBS and placed on growing CAMs. […] At 24 hours, the MAPK cascade inhibitor PD 98059 was also added to CAMs topically by means of the filter disks.
After incubation at 37° C. with 55% relative humidity for 3 days, the CAM tissue directly beneath each filter disk was resected from control and treated CAM samples. Tissues were washed 3× with PBS, placed in 35-mm Petri dishes (Nalge Nunc), and examined under an SV6 stereomicroscope (Zeiss) at ×50 magnification. Digital images of CAM sections exposed to filters were collected using a 3-charge-coupled device color video camera system (Toshiba) and analyzed with Image-Pro software (Media Cybernetics). The number of vessel branch points contained in a circular region equal to the area of each filter disk were counted. One image was counted in each CAM preparation, and findings from 8 to 10 CAM preparations were analyzed for each treatment condition (thyroid hormone or analogues, FGF2, FGF2 antibody, PD 98059). In addition, each experiment was performed 3 times. The resulting angiogenesis index is the mean±SEM of new branch points in each set of samples.
Ten-day-old chick embryos were purchased £tom SPAFAS (Preston, Conn.) and were incubated at 37° C. with 55% relative humidity. A hypodermic needle was used to make a small hole in the blunt end of the egg and a second hole was made on the broad side of the egg, directly over an avascular portion of the embryonic membrane. Mild suction was applied to the first hole to displace the air sac and drop the CAM away from the shell. Using a Dremel model craft drill (Dremel, Racine, Wis.), a approx. 1.0 cm^2 window was cut in the shell over the false air sac, allowing access to the CAM. Sterile disks of No. 1 filter paper (Whatman, Clifton, N.J.) were pretreated with 3 mg/ml cortisone acetate and 1 mMm propylthiouracil and air dried under sterile conditions. […] The disks were then suspended in PBS and placed on growing CAMS. After incubation for 3 days, the CAM beneath the filter disk was resected and rinsed with PBS. Each membrane was placed in a 35 mm Petri dish and examined under an SV6 stereo-microscope at 50× magnification. Digital images were captured and analyzed with Image-Pro software (Mediacybemetics). The number of vessel branch points contained in a circular region equal to the filter disk were counted. One image from each of 8-10 CAM preparations for each treatment condition was counted, and in addition each experiment was performed 3 times.
Ten-day-old chick embryos were purchased from SPAFAS (Preston, Conn.) and were incubated at 37° C. with 55% relative humidity. Chick CAM assays were performed as previously described.

For test [3], the system named is Human dermal micro-vascular endothelial cells (HDMEC). The test is described as follows: Three-dimensional human micro-vascular endothelial sprouting assay. The test is classed as cell-based. As to the method:
In Vitro Three-Dimensional Sprout Angiogenesis of Human Dermal Micro-Vascular Endothelial Cells (HDMEC) Cultured on Micro-Carrier Beads Coated with Fibrin: Confluent HDMEC (passages 5-10) were mixed with gelatin-coated Cytodex-3 beads with a ratio of 40 cells per bead. Cells and beads (150-200 beads per well for 24-well plate) were suspended with 5 ml EBM+15% normal human serum, mixed gently every hour for first 4 hours, then left to culture in a CO2 incubator overnight. The next day, 10 ml of fresh EBM+5% HS were added, and the mixture was cultured for another 3 hours. Before experiments, the culture of EC-beads was checked; then 500 ul of PBS was added to a well of 24-well plate, and 100 ul of the EC-bead culture solution was added to the PBS. The number of beads was counted, and the concentration of EC/beads was calculated.
A fibrinogen solution (1 mg/ml) in EBM medium with or without angiogenesis factors or testing factors was prepared. For positive control, 50 ng/ml VEGF+25 ng/ml FGF2 was used. EC-beads were washed with EBM medium twice, and EC-beads were added to fibrinogen solution. The experiment was done in triplicate for each condition. The EC-beads were mixed gently in fibrinogen solution, and 2.5 ul human thrombin (0.05 U/ul) was added in 1 ml fibrinogen solution; 300 ul was immediately transferred to each well of a 24-well plate. The fibrinogen solution polymerizes in 5-10 minutes; after 20 minutes, we added EBM+20% normal human serum+10 ug/ml aprotinin. The plate was incubated in a CO2 incubator. It takes about 24-48 hours for HDMEC to invade fibrin gel and form tubes.
A micro-carrier in vitro angiogenesis assay previously designed to investigate bovine pulmonary artery endothelial cell angiogenic behavior in bovine fibrin gels [Nehls and Drenckhahn, 1995a, b] was modified for the study of human microvascular endothelial cell angiogenesis in three-dimensional ECM environments (FIGS. 1 and 2). Briefly, human fibrinogen, isolated as previously described [Feng et al, 1999], was dissolved in M199 medium at a concentration of 1 mg/ml (pH 7.4) and sterilized by filtering through a 0.22 micron filter. An isotonic 1.5 mg/ml collagen solution was prepared by mixing sterile Vitrogen 100 in 5×M199 medium and distilled water. The pH was adjusted to 7.4 by 1N NaOH. In certain experiments, growth factors and ECM proteins (such as VEGF, bFGF, PDGF-BB, serum, gelatin, and fibronectin) were added to the fibrinogen or collagen solutions. About 500 EC-beads were then added to the 1 mg/ml fibrinogen or 1.5 mg/ml collagen solutions. Subsequently, EC-beads-collagen or EC-beads-fibrinogen suspension (500 EC-beads/ml) was plated onto 24-well plates at 300 ul/well. EC-bead-collagen cultures were incubated at 37° C. to form gel. The gelling of EC-bead-fibrin cultures occurred in less than 5 minutes at room temperature after the addition of thrombin to a final concentration of 0.5 U/ml. After gelation, 1 ml of fresh assay medium (EBM supplemented with 20% normal human serum for HDMEC or EBM supplemented with 10% fetal bovine serum was added to each well. The angiogenic response was monitored visually and recorded by video image capture. Specifically, capillary sprout formation was observed and recorded with a Nikon Diaphot-TMD inverted microscope (Nikon Inc.; Melville, N.Y.), equipped with an incubator housing with a Nikon NP-2 thermostat and Sheldon #2004 carbon dioxide flow mixer. The microscope was directly interfaced to a video system consisting of a Dage-MTI CCD-72S video camera and Sony 12″ PVM-122 video monitor linked to a Macintosh G3 computer. The images were captured at various magnifications using Adobe Photoshop. The effect of angiogenic factors on sprout angiogenesis was quantified visually by determining the number and percent of EC-beads with capillary sprouts. One hundred beads (five to six random low power fields) in each of triplicate wells were counted for each experimental condition. All experiments were repeated at least three times. […]

The subject of another test is HMVEC-d cells. The test is described as follows: Microarray analysis (Affymetrix Human U133 Plus 2.0) of HMVEC-d cells. The test is classed as cell-based. As to the method: Microarray Analysis Ten micrograms of total RNA from HMVEC-d cells was amplified and biotin-labeled according to GeneChip Expression Analysis Technical Manual (Affymetrix, Santa Clara, Calif.). Fragmented cRNA was hybridized with human gene chip U133 PLUS 2 (Affymetrix); chips were washed and stained with streptavidin R-phycoerythrin (Molecular Probes, Eugene, Oreg.). The chips were scanned and the data were analyzed with Microarray Suite and Data Mining Tool (Affymetrix).
To further identify possible mechanisms of tetrac inhibition of VEGF-stimulated angiogenesis, microarray analysis was performed using the Human U133 Plus 2.0 array from Affymetrix. HDMEC cells were incubated with VEGF at 50 ng/ml for 24 hours with and without Tetrac (3 uM). […] As shown in FIGS. 49A-C, Angiopoietin-like 1 (ANGPTL-1, probe set ID # 231773) expression was increased 5.9 fold following VEGF treatment.

Setting [4] is: hormone 0.1 uM alone, pretreated FGF2 1.25 ng/ml + VEGF […], day 3.
Setting [5] is: VEGF 50 ng/ml, 24 hours, vs untreated.

As to `[Ca+2].[Cl-].[Cl-]` [Ca^+2, Calcium Chloride], in test [1], the “K” value is on record as 7.0 ± 0.7 min, the “MA (mm)” value amounted to 56.5 ± 2.2 mm, the “r” value is recorded as 14.5 ± 2.5 min and the “α (angle)” value is 47.3 ± 2.7 angle.

With `CCCc1cc(=O)[nH]c(=S)[nH]1` [PTU, 6-N-propyl-2-thiouracil], the “effect on angiogenesis produced by T4” value in test [2] is reported as “no inhibitory effect”; in test [2] (listed as Propylthiouracil), “has no effect”.

For the compound `N[C@@H](Cc1cc(I)c(Oc2ccc(O)c(I)c2)c(I)c1)C(=O)O` [T3, 3,5,3′-triiodo-L-thyronine], in test [3] (0.01-0.1 μM), the stimulation of angiogenesis result is reported as “significant (P<0.01) stimulation of angiogenesis”. For the same compound, in test [3] (FGF2 25 ng + VEGF 50 ng, T3 20 ng, T4 23 ng, T4-agarose 23 ng, pre-treated with FGF2 1.25 ng/ml + VEGF […]), the “Mean Tube Vessel Length (mm) ± SD” value was determined as 1.88 ± 0.21 mm. In test [3] (setting [4]), the “Mean number of Migrated cells ± SD” value stood at 188 ± 15 and the “Mean vessel Length (mm) ± SD” value was 0.91 ± 0.04 mm.

With `O=C(O)Cc1cc(I)c(Oc2ccc(O)c(I)c2)c(I)c1` [TRIAC, triiodothyroacetic acid], in test [2] (CAM model), the “block of the pro-angiogenic effect of T4 or T4-agarose” value worked out at 100%.

Turning to “FGF2: human recombinant FGF2, standard proangiogenic agent”, the “fold increase in angiogenesis index” value in test [2] (1 μg of FGF2) is reported as 2-3 fold. For the same compound, in test [2] (FGF2 1 μg/ml on filter disk, vs PBS), the “fold increase in blood vessel branch formation” value was 2.2 fold and 2.4 fold. In addition, the “fold increase in angiogenesis” value in test [2] (FIG. 4 experiment with FGF2 antibody, concentration not given, 3 experiments) is 2 fold.

With VEGF, the ANGPTL-3 expression result with HMVEC-d cells (VEGF 50 ng/ml, 24 hours) is “unaffected”. Further, in the test with HMVEC-d cells (setting [5]), the “ANGPTL-1 expression, fold increase” value is given as 5.9 fold and the “ANGPTL-2 expression, fold increase” value worked out at 1.6 fold. In addition, in the test on HMVEC-d cells (VEGF treatment), the “MMP-15 expression, fold increase” value is on record as 5.1 fold; the “MMP-19 expression, fold increase” value came to 2.9 fold; the MMP-24 expression result is reported as “slightly decreased”.
